Assay results from patent US20250213558A1, “T-TYPE CALCIUM CHANNEL MODULATORS COMPRISING A PIPERAZINE OR 1,4-DIAZEPANE CORE AND METHODS OF USE THEREOF” (Praxis Precision Medicines, Inc., priority 2022, published 2025).
pIC50: −log10 of the molar value. Like-named read-outs stand apart in the source and are kept apart here.

Target: T1, Human Cav3.1 calcium channel (Homo sapiens, UniProt O43497)
T1 construct: expressed in transfected cells; host or cells: HEK-293 natClytin/TASK1+Cav3.1 cell line
Assay: Human Cav3.1 calcium channel patch clamp assay (SyncroPatch 384PE; single point and IC50, voltage dependent block)
Format: cell-based
Conditions: for % Inhibition (Single Point Data): patch clamp
Summary of the method: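 Automated whole-cell patch clamp at room temperature, cells held at −120 mV; 100 ms step to −20 mV (resting block), then 1600 ms at −65 mV and a second −20 mV step (voltage-dependent block), every 15 s. Peak currents averaged over last 3 sweeps; % inhibition relative to nickel-sensitive current.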

[1] = Testing Conc 1.25, HEK-293 natClytin/TASK1+Cav3.1 cell line
[2] = voltage dependent block (VDB), HEK-293 natClytin/TASK1+Cav3.1 cell line, read-out: Cav3.1 IC50
[3] = Testing Conc 1, HEK-293 natClytin/TASK1+Cav3.1 cell line

T1 sequence (O43497 whole entry): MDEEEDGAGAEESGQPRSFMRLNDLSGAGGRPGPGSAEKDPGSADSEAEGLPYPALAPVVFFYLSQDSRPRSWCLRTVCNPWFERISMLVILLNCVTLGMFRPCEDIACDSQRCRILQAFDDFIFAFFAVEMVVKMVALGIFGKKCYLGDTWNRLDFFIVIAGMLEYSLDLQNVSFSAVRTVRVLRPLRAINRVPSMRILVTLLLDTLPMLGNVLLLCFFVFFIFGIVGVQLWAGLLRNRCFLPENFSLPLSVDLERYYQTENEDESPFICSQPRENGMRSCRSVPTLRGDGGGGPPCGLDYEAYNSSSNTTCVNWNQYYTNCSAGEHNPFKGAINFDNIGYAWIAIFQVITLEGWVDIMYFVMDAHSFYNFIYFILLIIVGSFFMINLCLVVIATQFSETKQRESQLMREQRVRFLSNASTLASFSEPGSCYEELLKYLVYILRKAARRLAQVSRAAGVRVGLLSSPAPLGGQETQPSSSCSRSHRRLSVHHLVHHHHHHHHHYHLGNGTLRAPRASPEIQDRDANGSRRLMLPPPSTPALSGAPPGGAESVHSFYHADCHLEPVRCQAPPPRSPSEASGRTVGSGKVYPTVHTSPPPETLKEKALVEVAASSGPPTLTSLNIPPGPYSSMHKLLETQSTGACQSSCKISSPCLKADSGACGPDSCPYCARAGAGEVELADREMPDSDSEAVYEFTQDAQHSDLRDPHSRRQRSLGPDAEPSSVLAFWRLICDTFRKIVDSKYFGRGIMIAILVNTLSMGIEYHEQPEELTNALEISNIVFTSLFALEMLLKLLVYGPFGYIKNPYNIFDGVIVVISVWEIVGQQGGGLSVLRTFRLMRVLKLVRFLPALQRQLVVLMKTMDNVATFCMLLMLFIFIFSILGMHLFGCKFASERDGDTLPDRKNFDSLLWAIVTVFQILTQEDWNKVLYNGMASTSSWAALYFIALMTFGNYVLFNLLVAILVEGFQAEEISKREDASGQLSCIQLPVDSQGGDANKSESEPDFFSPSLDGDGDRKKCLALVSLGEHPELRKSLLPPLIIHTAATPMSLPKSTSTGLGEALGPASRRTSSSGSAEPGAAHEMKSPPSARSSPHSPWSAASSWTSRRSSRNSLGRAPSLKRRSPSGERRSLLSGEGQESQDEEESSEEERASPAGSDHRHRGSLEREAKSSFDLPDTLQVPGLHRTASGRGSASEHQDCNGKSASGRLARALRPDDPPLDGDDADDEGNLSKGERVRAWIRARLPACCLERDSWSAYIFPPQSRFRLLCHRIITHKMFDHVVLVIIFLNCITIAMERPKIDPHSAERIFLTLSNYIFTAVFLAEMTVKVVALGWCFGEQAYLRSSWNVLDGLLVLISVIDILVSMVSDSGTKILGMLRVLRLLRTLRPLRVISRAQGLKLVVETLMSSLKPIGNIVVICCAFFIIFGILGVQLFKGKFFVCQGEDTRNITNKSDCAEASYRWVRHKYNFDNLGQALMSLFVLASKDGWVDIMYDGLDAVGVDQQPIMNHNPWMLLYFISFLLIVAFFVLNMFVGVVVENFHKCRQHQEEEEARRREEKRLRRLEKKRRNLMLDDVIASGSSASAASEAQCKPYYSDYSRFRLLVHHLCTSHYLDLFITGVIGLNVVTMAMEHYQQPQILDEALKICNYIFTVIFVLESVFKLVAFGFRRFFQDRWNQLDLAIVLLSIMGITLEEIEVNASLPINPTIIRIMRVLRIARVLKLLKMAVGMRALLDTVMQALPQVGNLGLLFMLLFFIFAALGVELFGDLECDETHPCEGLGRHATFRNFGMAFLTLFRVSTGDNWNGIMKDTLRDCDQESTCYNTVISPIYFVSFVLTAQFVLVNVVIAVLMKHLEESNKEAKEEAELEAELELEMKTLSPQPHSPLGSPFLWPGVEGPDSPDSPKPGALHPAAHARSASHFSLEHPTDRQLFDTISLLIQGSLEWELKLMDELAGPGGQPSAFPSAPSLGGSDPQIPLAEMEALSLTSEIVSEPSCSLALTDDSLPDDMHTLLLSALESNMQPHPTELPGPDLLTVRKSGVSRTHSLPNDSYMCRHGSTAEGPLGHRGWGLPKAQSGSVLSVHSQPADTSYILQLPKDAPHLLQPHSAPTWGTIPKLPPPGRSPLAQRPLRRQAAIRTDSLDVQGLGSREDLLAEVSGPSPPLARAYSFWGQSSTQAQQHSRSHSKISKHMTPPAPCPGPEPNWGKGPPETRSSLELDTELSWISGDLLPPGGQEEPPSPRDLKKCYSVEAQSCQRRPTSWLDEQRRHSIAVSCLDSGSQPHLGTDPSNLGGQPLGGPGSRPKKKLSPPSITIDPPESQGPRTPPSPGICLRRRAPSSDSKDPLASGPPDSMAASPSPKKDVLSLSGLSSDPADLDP

Row | pIC50 [2] | % Inhibition (Single Point Data) [3] | Compound | % Inhibition (Single Point Data) [1] | pIC50
1 | 6.62 |  | O=C(CN1CC2CC1CN2CCNC(=O)C1(C(F)(F)F)CCC1)Nc1cc(F)cc(Cl)c1 (stereo not shown) [Compound 228] | 87.61% | 
2 | 5.90 |  | O=C(CN1CC2CC1CN2CC(=O)NC1(C(F)(F)F)CC1)Nc1cc(F)cc(Cl)c1 (stereo not shown) [Compound 223] | 75.83% | 
3 | 7.05 |  | CC(C)(C)NC(=O)CN1CC2CC1CN2CC(=O)Nc1cc(F)cc(OC(F)F)c1 (stereo not shown) [Compound 231] | 95.51% | 
4 | 7.13 |  | COc1cc(Cl)cc(NC(=O)CN2C[C@@H]3C[C@H]2CN3CC(=O)NC(C)(C)C)c1 [Compound 282] | 98.739% | 
5 | 6.30 |  | CC(C)(C)NC(=O)CN1C[C@H]2COC[C@@H](C1)[C@@H]2CNC(=O)c1cc(F)cc(Cl)c1 [Compound 369] |  | 
6 | 7.13 |  | CC(C)(C)NC(=O)CN1C[C@@H]2C[C@H]1CN2CC(=O)Nc1cc(F)c(F)c(OC(F)F)c1 [Compound 356] |  | 
7 | 6.32 |  | Cc1cc(F)cc(NC(=O)CN2C[C@@H]3C[C@H]2CN3CC(=O)NC(C)(C)C)c1 [Compound 276] | 71.467% | 
8 | 5.62 |  | CC(C)(C)NC(=O)CN1CC2CC1CN2CC(=O)Nc1cccc(Cl)c1 (stereo not shown) [Compound 131] | 83.36% | 
9 | 6.54 |  | Cc1cc(Cl)cc(NC(=O)CN2C[C@@H]3C[C@H]2CN3CC(=O)NC2(C(F)(F)F)CC2)c1 [Compound 327] | 87.352% | 
10 | 7.23 |  | CC(C)(C)NC(=O)CN1C[C@@H]2C[C@H]1CN2CC(=O)Nc1cc(Cl)cc(OC(F)F)c1 [Compound 294] | 101.56% | 
11 | 6.62 |  | COc1cc(NC(=O)CN2C[C@@H]3C[C@H]2CN3CC(=O)NC(C)(C)C)ccc1F [Compound 310] | 84.193% | 
12 | 6.63 |  | CC(C(=O)Nc1ccc(F)c(OC(F)F)c1)N1C[C@@H]2C[C@H]1CN2CC(=O)NC(C)(C)C (stereo partly shown) [Compound 263] | 90.098% | 
13 | 6.34 |  | CC(C)(C)NC(=O)CN1C[C@@H]2CC[C@H]1CN2CC(=O)Nc1ccc(F)c(OC(F)F)c1 [Compound 267] | 73.222% | 
14 | 6.64 |  | CC(C)(C)NC(=O)CN1CC2CC1CN2CC(=O)Nc1ccc(F)c(Cl)c1 (stereo not shown) [Compound 233] | 83.643% | 
15 | 5.90 |  | CC1(NC(=O)CN2CC3CC2CN3CC(=O)Nc2ccc(F)c(Cl)c2)CC1 (stereo not shown) [Compound 234] | 51.647% | 
16 |  | 42.822% | CC(C)(C)NC(=O)CN1CCN(CC(=O)Nc2cc(F)cc(Cl)c2)C(=O)C1 [Compound 35] |  | 
17 | 5.87 |  | CC(C)(C)NC(=O)CN1CC2CC1CN2CC(=O)Nc1cc(Cl)ccc1F (stereo not shown) [Compound 48] | 28.07% | 

Further lines, the molecule ahead of its results:

Row | Compound | pIC50 [2] | % Inhibition (Single Point Data) [3] | % Inhibition (Single Point Data) [1] | pIC50
18 | CC(C)(C)NC(=O)CN1C[C@@H]2C[C@H]1CN2C(=O)NCC12CC3CC(CC(C3)C1)C2 [Compound 290] |  |  | 8.7515% | 
19 | CC(C)(C)NC(=O)CN1C2CC1CN(CC(=O)Nc1ccc(F)c(OC(F)F)c1)C2 [Compound 244] | 6.75 |  | 90.346% | 
20 | CC(C)(C)NC(=O)CN1C[C@@H]2C[C@H]1CN2CC(=O)NC12CC3CC(CC(F)(C3)C1)C2 [Compound 300] | 6.21 |  | 65.343% | 
21 | CC(C)(C)NC(=O)CN1CCC(CNc2nccc3c(F)cc(Cl)cc23)CC1 [Compound 123] | 6.61 |  | 96.398% | 
22 | CC(C)(C)NC(=O)CN1C2CC1CN(CC(=O)Nc1ccn(Cc3ccc(C#N)cn3)n1)C2 [Compound 313] |  |  | −11.969% | 
23 | O=C(CN1CC2CC(C1)N2CC(=O)NC1(C(F)(F)F)CC1)Nc1cc(F)c(F)c(Cl)c1 [Compound 349] | > 7.11 |  |  | 
24 | CC(C)(C)NC(=O)CN1C2CC1CN(Cc1nc3c(C(F)(F)F)cccc3[nH]1)C2 [Compound 122] | 6.65 |  | 80.218% | 
25 | CC1(C(=O)NCCN2C3CC2CN(Cc2nc4c(Cl)cc(F)cc4[nH]2)C3)CCC1 [Compound 137] |  |  | 96.095% | > 7.11
26 | Cc1ccc(Cl)c2nc(CN3CC4CC(C3)N4CC(=O)NC(C)(C)C)[nH]c12 [Compound 217] |  |  | 100.76% | 
27 | CC(C)(C)NC(=O)CN1C[C@@H]2C[C@H]1CN2CC(=O)Nc1ccc(F)c(OC(F)F)c1 [Compound 247] |  |  | 97.344% | 
28 | CC(C)(C)NC(=O)CN1C2CCC1CN(CC(=O)Nc1cc(F)cc(Cl)c1)C2 [Compound 3] | 6.56 |  | 94.689% | 
29 | Fc1cc(Cl)c2nc(CN3CC4CC(C3)N4CC(F)(F)C3CCCCC3)[nH]c2c1 [Compound 167] | 6.42 |  | 79.996% | 
30 | COc1cc(NC(=O)CN2CC3CC(C2)N3CC(=O)NC(C)(C)C)ccc1Cl [Compound 331] |  |  | 102.24% | 
31 | CC1(C)CCN1C(=O)CN1C2CC1CN(Cc1nc3c(Cl)cc(F)cc3[nH]1)C2 [Compound 94] | 6.60 |  | 89.896% | 
32 | CC(C)(C)NC(=O)CN1C2CCC1CN(CC(=O)NCc1cc3ccccc3o1)C2 [Compound 5] |  |  | 22.469% | 
33 | Cc1cc(NC(=O)CN2C[C@@H]3C[C@H]2CN3CC(=O)NC2(C(F)(F)F)CC2)ccc1F [Compound 340] |  |  | 50% | 
34 | CC(C)(C)NC(=O)CN1CCN(CC(=O)Nc2noc3ccccc23)CC1 [Compound 41] | 6.50 | 38.937% |  | 
35 | CC(C)(C)NC(=O)CN1C2CC1CN(CC(=O)Nc1cc(F)c(F)c(OC(F)F)c1)C2 [Compound 360] | 7.12 |  |  | 
36 | CC1(C)CC(CN2C[C@@H]3C[C@H]2CN3CC(=O)NC23CC4CC(CC(C4)C2)C3)CCO1 (stereo partly shown) [Compound 298] | 5.68 |  | 26.791% | 
37 | CC(C)(C)NC(=O)CN1C2CC1CN(CC(=O)Nc1cc(F)cc(Cl)c1)C2 [Compound 10] | 6.84 |  | 83.732% | 
38 | CC(C)(C)NC(=O)CN1CC2CC1CN2Cc1nc2c(Cl)cc(F)cc2[nH]1 (stereo not shown) [Compound 126] |  |  | 94.215% | 
39 | Cc1cc(F)cc(NC(=O)CN2CC3CC(C2)N3CC(=O)NC(C)(C)C)c1 [Compound 215] |  |  | 100% | 

Row | Compound | pIC50 [2] | % Inhibition (Single Point Data) [3] | % Inhibition (Single Point Data) [1] | pIC50
40 | CC(C(=O)Nc1ccc(F)c(OC(F)F)c1)N1CC2CC(C1)N2CC(=O)NC1(C(F)(F)F)CC1 (stereo not shown) [Compound 255] | 6.37 |  | 66.406% | 
41 | O=C(CN1C[C@@H]2C[C@H]1CN2CC(=O)N1CCC(F)(F)CC1)NC12CC3CC(CC(C3)C1)C2 [Compound 316] | 6.43 |  | 70.161% | 
42 | CC(C(=O)NC(C)(C)C)N1C2CC1CN(CC(=O)Nc1ccc(F)c(Cl)c1)C2 (stereo not shown) [Compound 260] | 6.56 |  | 80.656% | 
43 | Cc1ccc(F)c2[nH]c(CN3CC4CC(C3)N4CC(=O)NC(C)(C)C)nc12 [Compound 207] | 6.92 |  | 97.657% | 
44 | CC1(OC(=O)CN2C3CC2CN(Cc2nc4c(Cl)cc(F)cc4[nH]2)C3)CC1 [Compound 140] | 6.55 |  | 79.539% | 
45 | Cc1ccc(Cl)cc1NC(=O)CN1CC2CC(C1)N2CC(=O)NC(C)(C)C [Compound 221] | 6.05 |  | 48.175% | 
46 | CC(C)(C)NC(=O)CN1C2CC1CN(Cc1nc3c(C#N)cc(F)cc3[nH]1)C2 [Compound 114] |  |  | 95.181% | > 7.11
47 | CC1(NC(=O)CN2C3CC2CN(Cc2nc4c(Cl)ccc(F)c4[nH]2)C3)COC1 [Compound 174] |  |  | 75.268% | 
48 | COc1cc(NC(=O)CN2CC3CC(C2)N3CC(=O)NC(C)(C)C)cc(F)c1F [Compound 353] | 7.01 |  |  | 
49 | O=C(CN1CC2CC(C1)N2CC(=O)NC1(C(F)(F)F)CC1)Nc1ccc(F)c(C(F)F)c1 [Compound 252] | 6.24 |  | 72.234% | 
50 | O=C(CN1CC2CC(C1)N2CC1(O)CCC(F)(F)CC1)NC12CC3CC(CC(C3)C1)C2 [Compound 278] | 5.92 |  | 45.568% | 
51 | CC(C)(C)NC(=O)CN1C2CC1CN(CC(=O)Nc1cccc(Cl)c1)C2 [Compound 11] |  |  | 81.305% | 
52 | CC(C)(C)NC(=O)CN1CC2CCC1CCN2Cc1nc2c(Cl)cc(F)cc2[nH]1 (stereo not shown) [Compound 74] | 6.24 |  | 72.584% | 
53 | CC(C)(C)NC(=O)CN1CC[C@@H](CNc2nccc3ccc(Cl)cc23)CC1=O [Compound 46] | 6.22 |  |  | 
54 | CC(C)(C)NC(=O)CN1CC2COCC(C1)N2Cc1nc2c(Cl)cc(F)cc2[nH]1 [Compound 153] | 6.41 |  | 82.059% | 
55 | CN(CCN1C2CC1CN(Cc1nc3c(Cl)cc(F)cc3[nH]1)C2)C(=O)C1(C)CC1 [Compound 145] |  |  | 83.5% | 
56 | Fc1cc(Cl)c2nc(CN3CCN(CC(F)(F)C4CCCCC4)CC3)[nH]c2c1 [Compound 162] | 6.38 |  | 73.357% | 
57 | CC(C)(C)C(O)CN1C2CC1CN(CC(=O)NC13CC4CC(CC(C4)C1)C3)C2 (stereo not shown) [Compound 293] | 5.77 |  | 38.151% | 
58 | CC(C)(C)NC(=O)CN1CC[C@H](CNc2nccc3ccc(Cl)cc23)CC1=O [Compound 45] |  |  | 58.802% | 
59 | CC(C)(C)NC(=O)CN1C2CC1CN(CC(=O)Nc1cc(Cl)ccc1F)C2 [Compound 14] | 5.77 |  | 39.34% | 
60 | Fc1ccc(Cl)c2nc(CN3CCN(CC(F)(F)C4CCCCC4)CC3)[nH]c12 [Compound 154] | 6.28 |  | 75.83% | 
